Measured values from ChEMBL document CHEMBL1201862, “PubChem BioAssay data set” (2004).
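Dose response: 5 concentrations. Exposure: 48 h. Format: 96-well plates. Endpoint: linear interpolation; highest concentration if not reached. GI50: concentration for 50% inhibition of growth.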 Active and inactive are the calls of the source. Cut-off read from the data, not from the text of the source: active = GI50 up to about 1.1 µM and inactive = higher.

What was measured:
Test in all cases: growth of human tumour cells (NCI), 48 h
KM12 = system: KM12
PC-3 = system: PC-3
IGROV-1 = system: IGROV-1
SK-MEL-5 = system: SK-MEL-5
SNB-75 = system: SNB-75
BT-549 = system: BT-549
LOX IMVI = system: LOX IMVI
T47D = system: T47D
MDA-MB-231 = system: MDA-MB-231
HL-60 = system: HL-60
SR = system: SR
SF-268 = system: SF-268
CCRF-CEM = system: CCRF-CEM
OVCAR-3 = system: OVCAR-3
UACC-62 = system: UACC-62
HOP-92 = system: HOP-92
OVCAR-5 = system: OVCAR-5
MCF7 = system: MCF7
SK-OV-3 = system: SK-OV-3
SNB-19 = system: SNB-19

Measured: GI50

COC(=O)c1ccccc1C1CN=NC12Cc1c(ccc3c1CCC3)C2=O (stereo not given)
inactive: KM12 38.4 µM | PC-3 43.8 µM | IGROV-1 88.7 µM | SK-MEL-5 25.4 µM | SNB-75 51.8 µM | BT-549 92.7 µM | LOX IMVI 23.8 µM | T47D 54 µM | MDA-MB-231 67.8 µM | HL-60 23.4 µM | SR 46.2 µM | SF-268 > 100 µM | CCRF-CEM 49.5 µM | OVCAR-3 96.2 µM | UACC-62 55.1 µM | HOP-92 27.4 µM | OVCAR-5 84.3 µM | MCF7 50.9 µM | SK-OV-3 > 100 µM | SNB-19 > 100 µM
